Data set [1] has as its system CYPs in pooled mouse liver microsomes (MLMs). As to the kind of experiment: Chemical inhibition of 1′-hydroxyelemicin formation in liver microsomes. The data set is classed as in vitro ADME. The conditions noted are these: inhibitor 1 μM (CYP1A1/2); 50 μM elemicin; MLMs 0.5 mg/mL; 40 min.
Data set [2] relates to C57BL/6J mice. Kind of data set: Experiment 5: alpha-naphthoflavone with elemicin in mice. Conditions: alpha-naphthoflavone 80 mg/kg/day i.p. + elemicin 500 mg/kg oral for 7 days. The data set is classed as in vivo, mouse.

As to `O=c1cc(-c2ccccc2)oc2c1ccc1ccccc12` [α-naphthoflavone], the “inhibitory effect against 1′-hydroxyelemicin generation” value in data set [1] is recorded as “relative higher inhibitory effects”. Also, the elemicin-induced hepatomegaly entry in data set [2] is on record as “significantly alleviate”.
